{"source": "patent US10597388B2", "about": "“Pyridazinone herbicides” (FMC CORPORATION, priority 2014, dated 2020)", "test_in_all_cases": "Test D controlled growth environment herbicide test, pre- and postemergence", "type_in_all_cases": "in vivo", "key": {"[1]": {"tested_on": "bromegrass, downy (downy bromegrass, Bromus tectorum)", "how_it_was_run": "(§1)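 Rating is visual, 0–100 scale (100 = complete control), made against untreated plants 14–21 d after treatment in controlled growth conditions. Postemergence sprays went onto 1- to 4-leaf plants in peat medium; preemergence sprays onto silt loam after sowing; formulation included a surfactant.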"}, "[2]": {"tested_on": "buckwheat, wild (wild buckwheat, Polygonum convolvulus)", "how_it_was_run": "as §1"}, "[3]": {"tested_on": "oilseed rape (Brassica napus)", "how_it_was_run": "as §1"}, "[4]": {"tested_on": "pigweed (Amaranthus retroflexus)", "how_it_was_run": "as §1"}, "[5]": {"tested_on": "field violet (Viola arvensis)", "how_it_was_run": "as §1"}, "[6]": {"tested_on": "speedwell (bird's-eye speedwell, Veronica persica)", "how_it_was_run": "as §1"}, "[7]": {"tested_on": "blackgrass (Alopecurus myosuroides)", "how_it_was_run": "as §1"}, "[8]": {"tested_on": "oat, wild (wild oat, Avena fatua)", "how_it_was_run": "as §1"}, "[9]": {"tested_on": "Russian thistle (Salsola kali)", "how_it_was_run": "as §1"}, "kochia (Kochia scoparia)": {"tested_on": "kochia (Kochia scoparia)", "how_it_was_run": "as §1"}, "[10]": {"tested_on": "chamomile (scentless chamomile, Matricaria inodora)", "how_it_was_run": "as §1"}, "[11]": {"tested_on": "lambsquarters (Chenopodium album)", "how_it_was_run": "as §1"}, "[12]": {"tested_on": "galium (catchweed bedstraw, Galium aparine)", "how_it_was_run": "as §1"}, "[13]": {"settings": "Postemergence, 31 g ai/ha, scale 0 to 100 (0 no effect, 100 complete control)"}, "[14]": {"settings": "Postemergence, 125 g ai/ha, visual rating on scale 0 (no effect) to 100 (complete control), 14 to 21 d"}, "[15]": {"settings": "Postemergence, 250 g ai/ha, scale 0 to 100 (0 no effect, 100 complete control)"}, "[16]": {"settings": "Preemergence, 62 g ai/ha, scale 0 to 100 (0 no effect, 100 complete control)"}, "[17]": {"settings": "Preemergence, 125 g ai/ha, scale 0 to 100 (0 no effect, 100 complete control)"}, "[18]": {"settings": "Preemergence, 250 g ai/ha, scale 0 to 100 (0 no effect, 100 complete control)"}, "[19]": {"settings": "postemergence, 62 g ai/ha, scale 0 to 100, 0 no effect, 100 complete control"}}, "data": [{"smiles": "CCC(=O)Oc1c(C)nn(C)c(=O)c1-c1c(C)sc2ccc(C)cc12", "note": "[Compound 42]", "values": [{"measurement": "Bromegrass, Downy plant response rating", "setting": "[1]; [13]", "value": 0}, {"measurement": "Plant response rating, Bromegrass, Downy", "setting": "[1]; [14]", "value": 40}, {"measurement": "Plant response rating, Bromegrass, Downy", "setting": "[1]; [15]", "value": 70}, {"measurement": "Plant response rating (scale of 0 to 100), Bromegrass, Downy", "setting": "[1]; Preemergence, 31 g ai/ha", "value": 45}, {"measurement": "Plant response rating, Bromegrass, Downy", "setting": "[1]; [16]", "value": 55}, {"measurement": "Plant response rating, Bromegrass, Downy", "setting": "[1]; [17]", "value": 70}, {"measurement": "Plant response rating, Bromegrass, Downy", "setting": "[1]; [18]", "value": 90}, {"measurement": "Plant response rating, Bromegrass, Downy", "setting": "[1]; [19]", "value": 20}, {"measurement": "Buckwheat, Wild plant response rating", "setting": "[2]; [13]", "value": 80}, {"measurement": "Plant response rating, Buckwheat, Wild", "setting": "[2]; [14]", "value": 100}, {"measurement": "Plant response rating, Buckwheat, Wild", "setting": "[2]; [15]", "value": 100}, {"measurement": "Plant response rating (scale of 0 to 100), Buckwheat, Wild", "setting": "[2]; Preemergence, 31 g ai/ha", "value": 20}, {"measurement": "Plant response rating, Buckwheat, Wild", "setting": "[2]; [16]", "value": 25}, {"measurement": "Plant response rating, Buckwheat, Wild", "setting": "[2]; [17]", "value": 80}, {"measurement": "Plant response rating, Buckwheat, Wild", "setting": "[2]; [18]", "value": 60}, {"measurement": "Plant response rating, Buckwheat, Wild", "setting": "[2]; [19]", "value": 95}, {"measurement": "Oilseed Rape plant response rating", "setting": "[3]; [13]", "value": 10}, {"measurement": "Plant response rating, Oilseed Rape", "setting": "[3]; [14]", "value": 60}, {"measurement": "Plant response rating, Oilseed Rape", "setting": "[3]; [15]", "value": 70}, {"measurement": "Plant response rating (scale of 0 to 100), Oilseed Rape", "setting": "[3]; Preemergence, 31 g ai/ha", "value": 0}, {"measurement": "Plant response rating, Oilseed Rape", "setting": "[3]; [16]", "value": 0}, {"measurement": "Plant response rating, Oilseed Rape", "setting": "[3]; [17]", "value": 0}, {"measurement": "Plant response rating, Oilseed Rape", "setting": "[3]; [18]", "value": 0}, {"measurement": "Plant response rating, Oilseed Rape", "setting": "[3]; [19]", "value": 50}, {"measurement": "Pigweed plant response rating", "setting": "[4]; [13]", "value": 85}, {"measurement": "Plant response rating, Pigweed", "setting": "[4]; [14]", "value": 90}, {"measurement": "Plant response rating, Pigweed", "setting": "[4]; [15]", "value": 100}, {"measurement": "Plant response rating (scale of 0 to 100), Pigweed", "setting": "[4]; Preemergence, 31 g ai/ha", "value": 90}, {"measurement": "Plant response rating, Pigweed", "setting": "[4]; [16]", "value": 100}, {"measurement": "Plant response rating, Pigweed", "setting": "[4]; [17]", "value": 100}, {"measurement": "Plant response rating, Pigweed", "setting": "[4]; [18]", "value": 100}, {"measurement": "Plant response rating, Pigweed", "setting": "[4]; [19]", "value": 90}, {"measurement": "Field Violet plant response rating", "setting": "[5]; [13]", "value": 70}, {"measurement": "Plant response rating, Field Violet", "setting": "[5]; [14]", "value": 90}, {"measurement": "Plant response rating, Field Violet", "setting": "[5]; [15]", "value": 90}, {"measurement": "Plant response rating (scale of 0 to 100), Field Violet", "setting": "[5]; Preemergence, 31 g ai/ha", "value": 85}, {"measurement": "Plant response rating, Field Violet", "setting": "[5]; [16]", "value": 95}, {"measurement": "Plant response rating, Field Violet", "setting": "[5]; [17]", "value": 100}, {"measurement": "Plant response rating, Field Violet", "setting": "[5]; [18]", "value": 100}, {"measurement": "Plant response rating, Field Violet", "setting": "[5]; [19]", "value": 80}, {"measurement": "Speedwell plant response rating", "setting": "[6]; [13]", "value": 10}, {"measurement": "Plant response rating, Speedwell", "setting": "[6]; [14]", "value": 45}, {"measurement": "Plant response rating, Speedwell", "setting": "[6]; [15]", "value": 45}, {"measurement": "Plant response rating (scale of 0 to 100), Speedwell", "setting": "[6]; Preemergence, 31 g ai/ha", "value": 70}, {"measurement": "Plant response rating, Speedwell", "setting": "[6]; [16]", "value": 75}, {"measurement": "Plant response rating, Speedwell", "setting": "[6]; [17]", "value": 70}, {"measurement": "Plant response rating, Speedwell", "setting": "[6]; [18]", "value": 100}, {"measurement": "Plant response rating, Speedwell", "setting": "[6]; [19]", "value": 50}, {"measurement": "Blackgrass plant response rating", "setting": "[7]; [13]", "value": 75}, {"measurement": "Plant response rating, Blackgrass", "setting": "[7]; [14]", "value": 80}, {"measurement": "Plant response rating, Blackgrass", "setting": "[7]; [15]", "value": 85}, {"measurement": "Plant response rating (scale of 0 to 100), Blackgrass", "setting": "[7]; Preemergence, 31 g ai/ha", "value": 80}, {"measurement": "Plant response rating, Blackgrass", "setting": "[7]; [16]", "value": 80}, {"measurement": "Plant response rating, Blackgrass", "setting": "[7]; [17]", "value": 95}, {"measurement": "Blackgrass plant response rating", "setting": "[7]; [18]", "value": 100}, {"measurement": "Plant response rating, Blackgrass", "setting": "[7]; [19]", "value": 75}, {"measurement": "Oat, Wild plant response rating", "setting": "[8]; [13]", "value": 75}, {"measurement": "Plant response rating, Oat, Wild", "setting": "[8]; [14]", "value": 85}, {"measurement": "Plant response rating, Oat, Wild", "setting": "[8]; [15]", "value": 95}, {"measurement": "Plant response rating (scale of 0 to 100), Oat, Wild", "setting": "[8]; Preemergence, 31 g ai/ha", "value": 90}, {"measurement": "Plant response rating, Oat, Wild", "setting": "[8]; [16]", "value": 90}, {"measurement": "Plant response rating, Oat, Wild", "setting": "[8]; [17]", "value": 95}, {"measurement": "Plant response rating, Oat, Wild", "setting": "[8]; [18]", "value": 95}, {"measurement": "Plant response rating, Oat, Wild", "setting": "[8]; [19]", "value": 85}, {"measurement": "Russian Thistle plant response rating", "setting": "[9]; [13]", "value": 70}, {"measurement": "Plant response rating, Russian Thistle", "setting": "[9]; [14]", "value": 85}, {"measurement": "Plant response rating, Russian Thistle", "setting": "[9]; [15]", "value": 90}, {"measurement": "Plant response rating (scale of 0 to 100), Russian Thistle", "setting": "[9]; Preemergence, 31 g ai/ha", "value": 10}, {"measurement": "Plant response rating, Russian Thistle", "setting": "[9]; [16]", "value": 15}, {"measurement": "Plant response rating, Russian Thistle", "setting": "[9]; [17]", "value": 65}, {"measurement": "Plant response rating, Russian Thistle", "setting": "[9]; [18]", "value": 75}, {"measurement": "Plant response rating, Russian Thistle", "setting": "[9]; [19]", "value": 75}, {"measurement": "Kochia plant response rating", "setting": "kochia (Kochia scoparia); [13]", "value": 70}, {"measurement": "Plant response rating, Kochia", "setting": "kochia (Kochia scoparia); [14]", "value": 95}, {"measurement": "Plant response rating, Kochia", "setting": "kochia (Kochia scoparia); [15]", "value": 100}, {"measurement": "Plant response rating (scale of 0 to 100), Kochia", "setting": "kochia (Kochia scoparia); Preemergence, 31 g ai/ha", "value": 20}, {"measurement": "Plant response rating, Kochia", "setting": "kochia (Kochia scoparia); [16]", "value": 60}, {"measurement": "Plant response rating, Kochia", "setting": "kochia (Kochia scoparia); [17]", "value": 75}, {"measurement": "Plant response rating, Kochia", "setting": "kochia (Kochia scoparia); [18]", "value": 100}, {"measurement": "Plant response rating, Kochia", "setting": "kochia (Kochia scoparia); [19]", "value": 90}, {"measurement": "Chamomile plant response rating", "setting": "[10]; [13]", "value": 75}, {"measurement": "Plant response rating, Chamomile", "setting": "[10]; [14]", "value": 100}, {"measurement": "Plant response rating, Chamomile", "setting": "[10]; [15]", "value": 100}, {"measurement": "Plant response rating (scale of 0 to 100), Chamomile", "setting": "[10]; Preemergence, 31 g ai/ha", "value": 95}, {"measurement": "Plant response rating, Chamomile", "setting": "[10]; [16]", "value": 100}, {"measurement": "Plant response rating, Chamomile", "setting": "[10]; [17]", "value": 100}, {"measurement": "Plant response rating, Chamomile", "setting": "[10]; [18]", "value": 100}, {"measurement": "Plant response rating, Chamomile", "setting": "[10]; [19]", "value": 70}, {"measurement": "Lambsquarters plant response rating", "setting": "[11]; [13]", "value": 80}, {"measurement": "Plant response rating, Lambsquarters", "setting": "[11]; [14]", "value": 85}, {"measurement": "Plant response rating, Lambsquarters", "setting": "[11]; [15]", "value": 90}, {"measurement": "Plant response rating (scale of 0 to 100), Lambsquarters", "setting": "[11]; Preemergence, 31 g ai/ha", "value": 98}, {"measurement": "Plant response rating, Lambsquarters", "setting": "[11]; [16]", "value": 100}, {"measurement": "Plant response rating, Lambsquarters", "setting": "[11]; [17]", "value": 100}, {"measurement": "Plant response rating, Lambsquarters", "setting": "[11]; [18]", "value": 100}, {"measurement": "Plant response rating, Lambsquarters", "setting": "[11]; [19]", "value": 85}, {"measurement": "Galium plant response rating", "setting": "[12]; [13]", "value": 100}, {"measurement": "Plant response rating, Galium", "setting": "[12]; [14]", "value": 100}, {"measurement": "Plant response rating, Galium", "setting": "[12]; [15]", "value": 100}, {"measurement": "Plant response rating (scale of 0 to 100), Galium", "setting": "[12]; Preemergence, 31 g ai/ha", "value": 70}, {"measurement": "Plant response rating, Galium", "setting": "[12]; [16]", "value": 85}, {"measurement": "Plant response rating, Galium", "setting": "[12]; [17]", "value": 95}, {"measurement": "Plant response rating, Galium", "setting": "[12]; [18]", "value": 100}, {"measurement": "Plant response rating, Galium", "setting": "[12]; [19]", "value": 100}]}]}
